Measurements: ChEMBL document CHEMBL1142492 (J Med Chem, 2008)

How the values were obtained:
[1] = biological target: Rho-associated protein kinase 2 (Homo sapiens, UniProt O75116); experiment: Inhibition of ROCK2
[2] = in vivo; settings: Sprague-Dawley, rat, po, 2 mg/kg
[3] = biological target: CYP3A4 (Homo sapiens, UniProt P08684); experiment: Inhibition of human CYP3A4 at 10 uM; assay type: ADME
[4] = biological target: T1, CYP1A2 (Homo sapiens, UniProt P05177); experiment: Inhibition of human CYP1A2 at 10 uM; assay type: ADME
T1 sequence (P05177 whole entry): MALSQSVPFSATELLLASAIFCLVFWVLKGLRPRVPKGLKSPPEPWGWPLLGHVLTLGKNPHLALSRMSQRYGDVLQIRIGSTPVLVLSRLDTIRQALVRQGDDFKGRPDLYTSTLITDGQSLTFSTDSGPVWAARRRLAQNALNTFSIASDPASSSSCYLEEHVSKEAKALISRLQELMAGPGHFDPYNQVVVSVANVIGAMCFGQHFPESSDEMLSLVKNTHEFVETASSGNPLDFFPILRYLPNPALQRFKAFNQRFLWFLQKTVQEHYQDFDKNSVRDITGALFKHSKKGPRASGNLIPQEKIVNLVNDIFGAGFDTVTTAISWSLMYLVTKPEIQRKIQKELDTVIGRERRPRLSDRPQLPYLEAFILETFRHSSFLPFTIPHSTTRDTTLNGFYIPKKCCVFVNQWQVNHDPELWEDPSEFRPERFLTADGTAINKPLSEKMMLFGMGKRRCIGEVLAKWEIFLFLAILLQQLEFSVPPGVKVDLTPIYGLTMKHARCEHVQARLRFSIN

[5] = in vivo; settings: Sprague-Dawley, rat, plasma, iv, 1 mg/kg
[6] = biological target: CYP2D6 (Homo sapiens, UniProt P10635); experiment: Inhibition of human CYP2D6 at 10 uM; assay type: ADME
CYP2D6, sequence (P10635 whole entry): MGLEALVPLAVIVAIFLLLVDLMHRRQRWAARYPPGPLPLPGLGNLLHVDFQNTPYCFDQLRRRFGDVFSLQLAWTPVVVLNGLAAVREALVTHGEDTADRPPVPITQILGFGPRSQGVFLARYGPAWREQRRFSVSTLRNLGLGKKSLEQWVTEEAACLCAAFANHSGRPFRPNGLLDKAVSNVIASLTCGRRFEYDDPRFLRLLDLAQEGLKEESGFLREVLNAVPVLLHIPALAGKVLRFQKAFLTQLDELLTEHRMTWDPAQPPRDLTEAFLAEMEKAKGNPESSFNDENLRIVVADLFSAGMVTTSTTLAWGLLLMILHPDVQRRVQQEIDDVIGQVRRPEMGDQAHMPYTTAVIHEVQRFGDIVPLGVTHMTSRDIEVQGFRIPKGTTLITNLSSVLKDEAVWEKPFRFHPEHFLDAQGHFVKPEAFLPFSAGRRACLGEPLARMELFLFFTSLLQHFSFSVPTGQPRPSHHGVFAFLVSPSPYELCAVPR

[7] = biological target: CYP2C9 (Homo sapiens, UniProt P11712); experiment: Inhibition of human CYP2C9 at 10 uM; assay type: ADME
CYP2C9, sequence (P11712 whole entry): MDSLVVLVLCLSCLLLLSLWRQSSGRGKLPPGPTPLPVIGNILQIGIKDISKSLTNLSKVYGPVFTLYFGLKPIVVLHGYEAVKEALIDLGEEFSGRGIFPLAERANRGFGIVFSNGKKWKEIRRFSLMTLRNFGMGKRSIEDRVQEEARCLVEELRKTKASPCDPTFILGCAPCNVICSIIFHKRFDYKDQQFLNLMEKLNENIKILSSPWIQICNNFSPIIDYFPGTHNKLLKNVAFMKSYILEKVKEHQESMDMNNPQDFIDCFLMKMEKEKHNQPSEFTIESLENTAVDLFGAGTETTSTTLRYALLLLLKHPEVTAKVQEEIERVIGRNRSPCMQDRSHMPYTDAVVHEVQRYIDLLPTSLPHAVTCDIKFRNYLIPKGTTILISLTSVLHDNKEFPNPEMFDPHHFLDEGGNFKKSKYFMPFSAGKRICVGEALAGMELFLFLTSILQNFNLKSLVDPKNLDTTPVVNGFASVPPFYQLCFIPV

[8] = Clearance in Sprague-Dawley rat at 1 mg/kg, iv; settings: in vivo
[9] = Volume of distribution in Sprague-Dawley rat at 1 mg/kg, iv; settings: in vivo
[10] = Half life in Sprague-Dawley rat at 1 mg/kg, iv; settings: in vivo
[11] = Inhibition of myosin light chain bisphosphorylation in rat A7r5 cells after 1 hr
[12] = biological target: RAC-alpha serine/threonine-protein kinase (Homo sapiens, UniProt P31749); experiment: Inhibition of AKT1 after 55 mins
RAC-alpha serine/threonine-protein kinase, sequence (P31749 whole entry): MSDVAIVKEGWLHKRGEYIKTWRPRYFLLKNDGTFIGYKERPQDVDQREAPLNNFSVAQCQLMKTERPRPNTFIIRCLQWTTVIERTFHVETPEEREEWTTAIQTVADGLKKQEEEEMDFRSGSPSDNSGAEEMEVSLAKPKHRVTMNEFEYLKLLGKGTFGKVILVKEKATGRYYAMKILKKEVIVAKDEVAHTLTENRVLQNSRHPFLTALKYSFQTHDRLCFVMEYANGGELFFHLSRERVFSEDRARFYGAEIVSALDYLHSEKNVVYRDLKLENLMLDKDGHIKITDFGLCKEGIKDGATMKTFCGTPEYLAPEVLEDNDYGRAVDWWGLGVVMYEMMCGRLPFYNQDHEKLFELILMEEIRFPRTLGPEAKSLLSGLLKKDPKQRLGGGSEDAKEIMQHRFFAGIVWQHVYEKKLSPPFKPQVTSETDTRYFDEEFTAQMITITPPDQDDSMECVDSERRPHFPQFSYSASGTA

Rho-associated protein kinase 2, sequence (O75116 whole entry): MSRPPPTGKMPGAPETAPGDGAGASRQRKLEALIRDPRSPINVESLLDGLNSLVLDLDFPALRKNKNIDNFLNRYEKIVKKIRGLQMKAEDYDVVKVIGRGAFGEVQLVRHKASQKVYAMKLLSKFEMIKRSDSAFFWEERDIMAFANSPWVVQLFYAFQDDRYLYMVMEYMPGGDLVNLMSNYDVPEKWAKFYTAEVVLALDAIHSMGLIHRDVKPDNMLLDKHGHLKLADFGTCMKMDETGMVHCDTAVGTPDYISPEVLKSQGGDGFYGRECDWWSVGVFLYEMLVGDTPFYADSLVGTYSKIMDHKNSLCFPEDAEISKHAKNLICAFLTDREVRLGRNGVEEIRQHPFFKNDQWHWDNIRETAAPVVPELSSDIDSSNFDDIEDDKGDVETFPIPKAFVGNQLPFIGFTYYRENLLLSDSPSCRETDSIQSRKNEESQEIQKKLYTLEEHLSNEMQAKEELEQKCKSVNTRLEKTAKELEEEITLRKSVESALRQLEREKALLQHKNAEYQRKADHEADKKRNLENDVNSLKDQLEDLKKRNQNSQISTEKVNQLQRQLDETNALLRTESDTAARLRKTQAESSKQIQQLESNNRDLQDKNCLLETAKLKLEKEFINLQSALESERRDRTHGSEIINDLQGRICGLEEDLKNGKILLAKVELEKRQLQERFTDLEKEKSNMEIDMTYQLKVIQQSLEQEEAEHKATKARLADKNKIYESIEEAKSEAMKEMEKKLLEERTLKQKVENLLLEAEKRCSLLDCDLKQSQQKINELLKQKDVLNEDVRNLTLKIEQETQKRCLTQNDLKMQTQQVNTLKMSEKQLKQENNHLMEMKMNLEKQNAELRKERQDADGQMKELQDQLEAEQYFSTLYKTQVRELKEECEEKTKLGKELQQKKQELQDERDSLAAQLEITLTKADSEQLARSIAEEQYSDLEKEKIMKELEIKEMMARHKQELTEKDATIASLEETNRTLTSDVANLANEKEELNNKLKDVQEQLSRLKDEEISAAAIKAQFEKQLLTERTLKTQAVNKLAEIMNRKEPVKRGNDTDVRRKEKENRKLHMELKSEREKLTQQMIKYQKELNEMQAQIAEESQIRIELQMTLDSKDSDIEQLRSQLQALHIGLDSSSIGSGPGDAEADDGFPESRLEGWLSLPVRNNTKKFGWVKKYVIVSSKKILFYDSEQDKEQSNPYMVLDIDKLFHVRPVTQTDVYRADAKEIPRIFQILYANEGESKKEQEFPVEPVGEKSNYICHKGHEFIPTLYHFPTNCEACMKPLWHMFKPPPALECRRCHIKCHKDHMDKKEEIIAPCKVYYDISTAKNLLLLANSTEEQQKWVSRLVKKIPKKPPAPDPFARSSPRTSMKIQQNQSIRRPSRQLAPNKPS
CYP3A4, sequence (P08684 whole entry): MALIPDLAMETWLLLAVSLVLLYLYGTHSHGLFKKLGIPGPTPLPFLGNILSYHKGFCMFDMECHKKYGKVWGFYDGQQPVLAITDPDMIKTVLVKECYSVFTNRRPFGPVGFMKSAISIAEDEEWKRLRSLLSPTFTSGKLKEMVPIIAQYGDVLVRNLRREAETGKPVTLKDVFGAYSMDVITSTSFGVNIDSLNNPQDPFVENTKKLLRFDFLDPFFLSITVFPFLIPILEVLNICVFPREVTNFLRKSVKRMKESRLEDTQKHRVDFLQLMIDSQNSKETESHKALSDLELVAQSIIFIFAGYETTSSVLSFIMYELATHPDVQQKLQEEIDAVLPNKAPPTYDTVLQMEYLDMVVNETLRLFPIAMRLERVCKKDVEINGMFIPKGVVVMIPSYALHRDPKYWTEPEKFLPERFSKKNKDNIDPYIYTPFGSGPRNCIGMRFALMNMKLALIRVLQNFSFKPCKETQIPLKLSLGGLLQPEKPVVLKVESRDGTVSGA

| IC50 [1] [nM] | Cmax [2] [nM] | inhibition at 10 µM [3] [%] | inhibition at 10 µM [4] [%] | AUC [5] [µM·h] | inhibition at 10 µM [6] [%] | inhibition at 10 µM [7] [%] | clearance [8] [mL/min/kg] | Vd [9] [L/kg] | half-life [10] [h] | IC50 [11] [nM] | IC50 [12] [nM] | SMILES |
| --- | --- | --- | --- | --- | --- | --- | --- | --- | --- | --- | --- | --- |
| 760 | – | – | – | – | – | – | – | – | – | – | – | CC(=O)Nc1ccc(-c2cn[nH]c2)cc1OCCN(C)C |
| – | 20 | 1 | 20 | 2.8 | 40 | 87 | 18 | 1.9 | 2.2 | – | – | O=C(Nc1ccc(-c2c[nH]cn2)cc1)C1COc2ccccc2O1 (stereo unspecified) |
| – | – | 51 | 23 | 0.3 | 33 | 64 | 161 | 5.3 | 0.5 | – | – | O=C(Nc1ccc(-c2ccncc2)cc1)C1COc2ccccc2O1 (stereo unspecified) |
| 7.2 | – | 80 | 90 | 0.3 | 94 | 96 | 181 | 3.7 | 0.4 | 137 | > 20000 | O=C(Nc1nc(-c2ccncc2)cs1)C1COc2ccccc2O1 (stereo unspecified) |
| 3.3 | 120 | 36 | 92 | 4.3 | 79 | 93 | 11 | 1 | 2.6 | – | 8820 | COc1cc(-c2cn[nH]c2)ccc1NC(=O)C1COc2ccccc2O1 (stereo unspecified) |
| 920 | – | – | – | – | – | – | – | – | – | – | – | CN(C)CCOc1cc(-c2cn[nH]c2)ccc1N |
